pIC50: −log10 of the molar value.
Assays:
[1] = target: T1, thromboxane synthase (Homo sapiens, UniProt P24557); test: Test of thromboxane synthase inhibitory action (production of thromboxane B2 in human platelet microsomes); type: biochemical; conditions: suppressing production of thromboxane (thromboxane B2), prostaglandin H2, EIA, read-out: TxSI IC50
T1 construct: containing human platelet microsomes (50 µg protein/ml) and the test compound; from tissue; host or cells: human platelet microsomes
T1 sequence (P24557 1-533): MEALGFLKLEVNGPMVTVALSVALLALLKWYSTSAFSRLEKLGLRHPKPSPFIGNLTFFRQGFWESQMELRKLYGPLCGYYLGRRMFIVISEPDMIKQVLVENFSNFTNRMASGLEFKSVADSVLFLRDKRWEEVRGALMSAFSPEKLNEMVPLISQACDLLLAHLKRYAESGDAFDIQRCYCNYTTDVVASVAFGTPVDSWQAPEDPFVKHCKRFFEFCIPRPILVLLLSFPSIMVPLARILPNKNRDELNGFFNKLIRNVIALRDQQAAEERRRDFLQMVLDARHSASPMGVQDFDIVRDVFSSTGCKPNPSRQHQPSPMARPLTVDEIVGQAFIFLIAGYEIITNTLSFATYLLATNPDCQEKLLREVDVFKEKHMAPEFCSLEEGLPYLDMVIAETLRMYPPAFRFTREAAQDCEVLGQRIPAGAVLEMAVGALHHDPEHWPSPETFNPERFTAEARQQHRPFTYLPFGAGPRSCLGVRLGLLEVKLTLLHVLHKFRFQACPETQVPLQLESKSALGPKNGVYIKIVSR
Description: Human platelet microsomes were used and a test of the thromboxane synthase inhibitory activity of the compounds was determined by the amount of production of thromboxane B2 as the thromboxane A2 stable metabdite.
[…] A reaction was initiated to added prostaglandin H2 (100 ng/2 µl), and terminated with 1N hydrocloric acid. Then neutralized by 1M Tris-base, and centrifuged at 3000 rpm for 20 minutes. The content of the thromboxane B2 in the supernatent was measured by the EIA method (Cayman Co. kit).
As the test compound, the same compounds as in Test Example 1 were used.

[2] = target: T2, lipoxygenase (Rattus norvegicus, UniProt P12527); test: Test of lipoxygenase inhibitory action (production of leukotriene B4 in rat polymorphonuclear leukocytes); type: cell-based; conditions: inhibiting the production of leukotriene B4, calcium ionophore A-23187, EIA, read-out: LTBI IC50
T2 construct: the peritoneal cavities were lavaged and the polymorphonuclear leukocytes were recovered; endogenous in cells; host or cells: casein-elicited peritoneal polymorphonuclear leukocytes of Wistar male rats
T2 sequence (P12527 1-673): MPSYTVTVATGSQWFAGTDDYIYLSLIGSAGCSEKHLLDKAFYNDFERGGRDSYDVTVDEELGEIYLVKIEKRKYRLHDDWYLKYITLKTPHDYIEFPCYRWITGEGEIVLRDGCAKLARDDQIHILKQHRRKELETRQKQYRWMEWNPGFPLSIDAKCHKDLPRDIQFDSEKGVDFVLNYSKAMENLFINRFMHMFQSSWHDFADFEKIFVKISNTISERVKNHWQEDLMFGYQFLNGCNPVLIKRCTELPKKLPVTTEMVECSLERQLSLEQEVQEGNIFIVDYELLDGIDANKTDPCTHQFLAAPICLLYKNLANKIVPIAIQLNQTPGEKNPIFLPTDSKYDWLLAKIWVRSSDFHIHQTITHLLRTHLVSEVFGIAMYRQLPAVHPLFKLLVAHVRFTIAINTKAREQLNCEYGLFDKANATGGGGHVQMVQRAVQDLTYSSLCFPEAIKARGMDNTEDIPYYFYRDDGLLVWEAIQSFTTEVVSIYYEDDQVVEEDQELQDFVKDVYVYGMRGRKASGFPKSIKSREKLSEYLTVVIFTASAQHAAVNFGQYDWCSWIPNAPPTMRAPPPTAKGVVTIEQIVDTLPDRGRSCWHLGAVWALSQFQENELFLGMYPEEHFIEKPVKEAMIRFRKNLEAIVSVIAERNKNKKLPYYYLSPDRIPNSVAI
Description: Using rat polymorphonuclear leukocytes, a test of the lipoxygenase inhibitory activity of the test compounds was determined the amount of production of leukotriene B4.
Wistar male rats (Japan Clea) were intraperitoneally administered with 12% sodium casein. After 16 hours, the peritoneal cavities were lavaged and the polymorphonuclear leukocytes were recovered. The obtained polymorphonuclear leukocytes were suspended in a phosphate buffer (137 mM NaCl, 3 mM KCl, 8 mM Na2HPO4, 2 mM KH2PO4) (2.5 × 10^5 cells/0.4 ml), then the incubation was carried out at 37°C for 10 minutes the test compound (final concentration 10^-5M) was added and then for 5 minutes after a calcium solution (10 mM CaCl2, 0.86% NaCl) 0.1 ml was added, then 1.25 µl of calcium ionophore (20 µM, A-23187) was added and the reaction started. Five minutes after the addition, 250 µl of methanol was added to stop the reaction. After the reaction was stopped, the resultant mixture was centrifuged for 20 minutes (4°C, 3000 rpm), then the amount of leukotriene B4 in the supernatant was measured by the EIA method (Cayman Co. kit).
As the test compound, the above mentioned Compound 1 to Compound 4, Compound 9 to Compound 11, Compound 22 to Compound 26, Compound 28, Compound 29, compound 32, Compound 33, and Compound 40 to Compound 48 were used.

[3] = tested on: antigen-induced bronchoconstriction; test: Antigen-induced bronchoconstriction model of guinea pig (Konzett-Rossler method); type: in vivo; conditions: Cavia porcellus, po, 1 h; guinea pigs sensitized by ovalbumin, orally administered, one hour after administration; read-out: Suppression of Respiratory Constriction (ED50: mg/kg)
Description: Guinea pigs sensitized by ovalbumin were used and orally administered with the test compound suspended in 5% gum arabic. The activity for suppressing antigen-induced bronchoconstriction after one hour after administration was measured by the Konzett-Rossler method.
Each of the sensitized guinea pigs was anesthesized by 35 mg/kg pentobarbital, a airway cannula was inserted into the trachea and connected to an artificial respirator and transducer, a vein cannula was inserted into the jugular vein, and treatment was performed by 5 mg/kg soxamethonium and 5 mg/kg mepyramine. Next, the guinea pig was inhaled a nebulized ovalbumin to cause bronchoconstriction and the activity in suppressing bronchoconstriction was found from the ratio of the amount of overflow volume to the detector to the amount of air blown volume from the artificial respirator.
As the test compound, the Compound 7 was used. […]

| SMILES | pIC50 [1] | pIC50 [2] | ED50 [3] |
| --- | --- | --- | --- |
| NC(=O)N(O)CCCCC/C=C(/c1ccccc1)c1cccnc1 [Compound 2, N-hydroxy-N-[(Z)-7-phenyl-7-(3-pyridyl)-6-hepten-1-yl]urea] | 7.70 | 7.22 |  |
| O=C(NC1CCCCC1)N(O)CCCCC/C=C(/c1ccccc1)c1cccnc1 [Compound 3, N'-cyclohexyl-N-hydroxy-N-[(Z)-7-phenyl-7-(3-pyridyl)-6-hepten-1-yl]urea] | 8.05 | 7.30 |  |
| NC(=O)N(O)CCCC(c1ccccc1)c1cccnc1 (centres unmarked) [Compound 7, N-hydroxy-N-[4-phenyl-4-(3-pyridyl)butyl]urea] |  |  | 70 mg/kg |
| NC(=O)N(O)CCCCCCC(c1ccccc1)c1cccnc1 (centres unmarked) [Compound 24, N-hydroxy-N-[7-phenyl-7-(3-pyridyl)heptyl]urea] | 8.00 | 7.10 |  |
| CC(CCCCCC(c1ccccc1)c1cccnc1)N(O)C(N)=O (centres unmarked) [Compound 28, N-hydroxy-N-[1-methyl-7-phenyl-7-(3-pyridyl)heptyl]urea] | 8.15 | 7.00 |  |
| CC(CCCCCCCC(c1ccccc1)c1cccnc1)N(O)C(=S)NC1CCCCC1 (centres unmarked) [Compound 32, N'-cyclohexyl-N-hydroxy-N-[1-methyl-9-phenyl-9-(3-pyridyl)nonyl]thiourea] | 8.05 | 7.00 |  |
| NC(=O)N(O)CCCCCCCCCC(c1ccccc1)c1cccnc1 (centres unmarked) [Compound 33, N-hydroxy-N-[10-phenyl-10-(3-pyridyl)decyl]urea] | 8.00 | 8.00 |  |
| NC(=O)N(O)C/C=C/CCCC(c1ccccc1)c1cccnc1 (centres unmarked) [Compound 40, N-hydroxy-N-[(E)-7-phenyl-7-(3-pyridyl)-2-hepten-1-yl]urea] | 7.52 | 6.70 |  |
| NC(=O)N(O)Cc1cccc(OC(c2ccccc2)c2cccnc2)c1 (stereo not drawn) [Compound 42, N-hydroxy-N-[3-[α-(3-pyridyl)benzyloxy]benzyl]urea] | 7.22 | 6.52 |  |
| NC(=O)N(O)Cc1ccc(OC(c2ccccc2)c2cccnc2)cc1 (stereo not drawn) [Compound 43, N-hydroxy-N-[4-[α-(3-pyridyl)benzyloxy]benzyl]urea] | 7.30 | 6.30 |  |
| CC(c1cccc(OC(c2ccccc2)c2cccnc2)c1)N(O)C(N)=O (stereo not drawn) [Compound 46, N-hydroxy-N-[3-[α-(3-pyridyl)benzyloxy]-α-methylbenzyl]urea] | 8.05 | 6.00 |  |
| NC(=O)N(O)Cc1cccc(CC(c2ccccc2)c2cccnc2)c1 (stereo not drawn) [Compound 47, N-hydroxy-N-[3-[β-(3-pyridyl)phenethyl]benzyl]urea] | 7.70 | 6.52 |  |
| CC(c1cccc(CC(c2ccccc2)c2cccnc2)c1)N(O)C(N)=O (stereo not drawn) [Compound 48, N-hydroxy-N-[3-[β-(3-pyridyl)phenethyl]-α-methylbenzyl]urea] | 7.52 | 6.10 |  |
| CC(c1cc2ccccc2s1)N(O)C(N)=O (centres unmarked) [Compound A-64077] |  |  | 300 mg/kg |
| O=C(O)/C=C/c1ccc(Cn2ccnc2)cc1 [OKY-046] |  |  | 260 mg/kg |

The remaining molecules from weak to strong by pIC50 [1], led by results:

| pIC50 [1] | pIC50 [2] | SMILES | ED50 [3] |
| --- | --- | --- | --- |
| 8.22 | 5.70 | NC(=O)N(O)CCC=C(c1cccnc1)c1cccc(C(F)(F)F)c1 [Compound 4, N-hydroxy-N-[4-(3-pyridyl)-4-(3-trifluoromethylphenyl)-3-buten-1-yl] urea] |  |
| 8.22 | 6.70 | CCNC(=O)N(O)CCCCCC(c1ccccc1)c1cccnc1 (centres unmarked) [Compound 23, N'-ethyl-N-hydroxy-N-[6-phenyl-6-(3-pyridyl)hexyl]urea] |  |
| 8.22 | 7.05 | COc1cccc(NC(=O)N(O)Cc2cccc(OC(c3ccccc3)c3cccnc3)c2)c1 (stereo not drawn) [Compound 45, N-hydroxy-N'-(3-methoxyphenyl)-N-[3-[α-(3-pyridyl)benzyloxy]benzyl] urea] |  |
| 8.30 | 7.22 | O=C(NC1CCCCC1)N(O)CCCCCCC(c1ccccc1)c1cccnc1 (centres unmarked) [Compound 25, N'-cyclohexyl-N-hydroxy-N-[7-phenyl-7-(3-pyridyl)heptyl]urea] |  |
| 8.30 | 6.70 | CC(/C=C/CCCC(c1ccccc1)c1cccnc1)N(O)C(N)=O (centres unmarked) [Compound 41, N-hydroxy-N-[(E)-1-methyl-7-phenyl-7-(3-pyridyl)-2-hepten-1-yl]urea] |  |
| 8.30 | 6.70 | O=C(NC1CCCCC1)N(O)Cc1cccc(OC(c2ccccc2)c2cccnc2)c1 (stereo not drawn) [Compound 44, N'-cyclohexyl-N-hydroxy-N-[3-[α-(3-pyridyl)benzyloxy]benzyl]urea] |  |
| 8.40 | 6.70 | NC(=S)N(O)CCCCCC(c1ccccc1)c1cccnc1 (centres unmarked) [Compound 22, N-hydroxy-N-[6-phenyl-6-(3-pyridyl)hexyl]thiourea] |  |
| 8.70 | 6.30 | COc1cccc(NC(=O)N(O)CCCC(c2ccccc2)c2cccnc2)c1 (centres unmarked) [Compound 11, N-hydroxy-N'-(3-methoxyphenyl)-N-[4-phenyl-4-(3-pyridyl)butyl]urea] |  |
| 8.70 | 7.40 | COc1cccc(NC(=O)N(O)CCCCCCC(c2ccccc2)c2cccnc2)c1 (centres unmarked) [Compound 26, N-hydroxy-N'-(3-methoxyphenyl)-N-[7-phenyl-7-(3-pyridyl)heptyl]urea] |  |
| 8.70 | 7.40 | ON(CCCCCCCC(c1ccccc1)c1cccnc1)C(=S)Nc1ccccc1 (centres unmarked) [Compound 29, N-hydroxy-N'-phenyl-N-[8-phenyl-8-(3-pyridyl)octyl]thiourea] |  |
| 9.05 | 6.40 | NC(=O)N(O)CCCCC/C=C(\c1ccccc1)c1cccnc1 [Compound 1, N-hydroxy-N-[(E)-7-phenyl-7-(3-pyridyl)-6-hepten-1-yl]urea] |  |
| 9.05 | 6.52 | ON(CCCC(c1ccccc1)c1cccnc1)C(=S)NC1CCCCC1 (centres unmarked) [Compound 10, N'-cyclohexyl-N-hydroxy-N-[4-phenyl-4-(3-pyridyl)butyl]thiourea] |  |
| 9.52 | 6.00 | O=C(NC1CCCCC1)N(O)CCCC(c1ccccc1)c1cccnc1 (centres unmarked) [Compound 9, N'-cyclohexyl-N-hydroxy-N-[4-phenyl-4-(3-pyridyl)butyl]urea] |  |
